Results taken from ChEMBL document CHEMBL3351602 (Eur J Med Chem, 2014).
The source made the active and inactive calls. No cut-off for these calls is given here.

Tests used:
[1] = tested on: MDA-MB-231; assay: Cytotoxicity against human MDA-MB-231 cells assessed as induction of cell death at 0.5 to 25 uM after 48 hrs by MTT assay; format: functional, cell-based
[2] = tested on: MCF7; assay: Cytotoxicity against human MCF7 cells assessed as induction of cell death at 0.5 to 25 uM after 48 hrs by MTT assay; format: functional, cell-based
[3] = tested on: MEF; assay: Cytotoxicity against MEFs assessed as reduction in cell viability up to 100 uM after 48 to 96 hrs by MTT assay; format: cell-based; details: mouse
[4] = tested on: MDA-MB-231; assay: Cytotoxicity against human MDA-MB-231 cells assessed as reduction in cell viability after 48 hrs by MTT assay; format: functional, cell-based; details: MDA-MB-231, 48 h
[5] = tested on: MCF7; assay: Cytotoxicity against human MCF7 cells assessed as reduction in cell viability after 48 hrs by MTT assay; format: functional, cell-based; details: MCF7, 48 h
[6] = tested on: MDA-MB-231; assay: Cytotoxicity against human MDA-MB-231 cells assessed as reduction in cell viability after 96 hrs by MTT assay; format: functional, cell-based; details: MDA-MB-231, 96 h
[7] = tested on: MCF7; assay: Cytotoxicity against human MCF7 cells assessed as reduction in cell viability after 96 hrs by MTT assay; format: functional, cell-based; details: MCF7, 96 h
[8] = tested on: MCF7; assay: Induction of cell death in human MCF7 cells at 10 to 50 uM after 24 hrs using calcein AM and ethidium homodimer-1 by live/dead assay; format: functional
[9] = tested on: MDA-MB-231; assay: Induction of cell death in human MDA-MB-231 cells at 10 to 50 uM after 24 hrs using calcein AM and ethidium homodimer-1 by live/dead assay; format: functional, cell-based
[10] = tested on: MDA-MB-231; assay: Ratio of tamoxifen IC50 to compound IC50 for human MDA-MB-231 cells assessed as reduction in cell viability after 96 hrs by MTT assay; format: functional
[11] = tested on: MCF7; assay: Ratio of tamoxifen IC50 to compound IC50 for human MCF7 cells assessed as reduction in cell viability after 96 hrs by MTT assay; format: functional
[12] = tested on: MDA-MB-231; assay: Ratio of ospemifene IC50 to compound IC50 for human MDA-MB-231 cells assessed as reduction in cell viability after 96 hrs by MTT assay; format: functional
[13] = tested on: MCF7; assay: Ratio of ospemifene IC50 to compound IC50 for human MCF7 cells assessed as reduction in cell viability after 96 hrs by MTT assay; format: functional
[14] = tested on: MCF7; assay: Induction of cell death in human MCF7 cells at 10 uM after 24 hrs using calcein AM and ethidium homodimer-1 by live/dead assay; format: functional
[15] = tested on: MDA-MB-231; assay: Induction of cell death in human MDA-MB-231 cells at 10 uM after 24 hrs using calcein AM and ethidium homodimer-1 by live/dead assay; format: functional

SMILES | Activity [1] | Activity [2] | Activity [3] | IC50 [4] [µM] | IC50 [5] [µM] | IC50 [6] [µM] | IC50 [7] [µM] | Activity [8] | Activity [9] | Ratio IC50 [10] | Ratio IC50 [11] | Ratio IC50 [12] | Ratio IC50 [13] | Activity [14] [%] | Activity [15] [%]
[N-]=[N+]=NCCOc1ccc(/C(=C(/CCN=[N+]=[N-])c2ccccc2)c2ccccc2)cc1 | inactive | inactive |  |  |  |  |  |  |  |  |  |  |  |  | 
CC/C(=C(\c1ccccc1)c1ccc(OCCN(C)C)cc1)c1ccccc1 [TAMOXIFEN] |  |  | Non-toxic |  |  |  |  |  |  |  |  |  |  |  | 
[N-]=[N+]=NCCOc1ccc(/C(=C(/CCCl)c2ccccc2)c2ccccc2)cc1 | inactive | inactive |  |  |  |  |  |  |  |  |  |  |  |  | 
O=C(NCC/C(=C(\c1ccccc1)c1ccc(OCCO)cc1)c1ccccc1)Oc1ccccc1 | Active | Active |  | > 100 | 76 | 62.3 | 50 |  |  |  |  |  |  |  | 
[N-]=[N+]=NCC/C(=C(\c1ccccc1)c1ccc(OCCO)cc1)c1ccccc1 |  | Active |  | > 100 | > 100 | > 100 | > 100 |  |  |  |  |  |  |  | 
OCCOc1ccc(/C(=C(/CCCl)c2ccccc2)c2ccccc2)cc1 [OSPEMIFENE] |  |  | Non-toxic | > 100 | > 100 | > 100 | 55 |  |  |  |  |  |  |  | 
CS(=O)(=O)OCCOc1ccc(/C(=C(/CCCl)c2ccccc2)c2ccccc2)cc1 | inactive | inactive |  |  |  |  |  |  |  |  |  |  |  |  | 
NCC/C(=C(\c1ccccc1)c1ccc(OCCO)cc1)c1ccccc1 | Active | Active | Non-toxic | 25 | 15.9 | 14.5 | 12.4 | 50% | Active | >5 | >5 | 5 | 5 |  | 
NCCOc1ccc(/C(=C(/CCN)c2ccccc2)c2ccccc2)cc1 | Active | Active | Non-toxic | 17.1 | 23.6 | 13.4 | 11.2 | Active | Active | >5 | >5 | 5 | 5 | 70 | 70
